Reference: patent US20260022142A1, “MACROCYCLIC IMMUNOMODULATORS” (Bristol-Myers Squibb Company, priority 2022, published 2026)
Bridge positions count the residues as written; N and C are the ends. Square brackets hold non-standard residues; d marks the D form. Peptide text beside a SMILES is read from it. * marks the point of attachment. ξ: configuration not given here. Phe(4-COOH) = N[C@@H](Cc1ccc(C(=O)O)cc1)C(=O)O; Bip = N[C@@H](Cc1ccc(-c2ccccc2)cc1)C(=O)O; Phe(3-Me) = Cc1cccc(C[C@H](N)C(=O)O)c1; NH(CH2)12COOH = O=C(O)CCCCCCCCCCCCN*; Val(3-OH) = CC(C)(O)[C@H](N)C(=O)O; 4Pal = N[C@@H](Cc1ccncc1)C(=O)O; Aad = N[C@@H](CCCC(=O)O)C(=O)O; Cha = N[C@@H](CC1CCCCC1)C(=O)O; Cit = NC(=O)NCCC[C@H](N)C(=O)O; Thr(3ξ) = CC(O)[C@H](N)C(=O)O; hSer = N[C@@H](CCO)C(=O)O; Carboxymethyl = O=C(O)C*; Orn = NCCC[C@H](N)C(=O)O; Aun = NCCCCCCCCCCC(=O)O; Dab = NCC[C@H](N)C(=O)O; Dap = NC[C@H](N)C(=O)O; AEEA = NCCOCCOCC(=O)O; Propargyl = C#CC*

Biological target: T1, PD-1/PD-L1 interaction (PE-labeled human PD-L1-Ig binding to Jurkat cell line over-expressing human PD-1) (Homo sapiens, UniProt Q15116)
T1 construct: expressed in transfected cells; host or cells: Jurkat
T1 sequence (Q15116 25-288): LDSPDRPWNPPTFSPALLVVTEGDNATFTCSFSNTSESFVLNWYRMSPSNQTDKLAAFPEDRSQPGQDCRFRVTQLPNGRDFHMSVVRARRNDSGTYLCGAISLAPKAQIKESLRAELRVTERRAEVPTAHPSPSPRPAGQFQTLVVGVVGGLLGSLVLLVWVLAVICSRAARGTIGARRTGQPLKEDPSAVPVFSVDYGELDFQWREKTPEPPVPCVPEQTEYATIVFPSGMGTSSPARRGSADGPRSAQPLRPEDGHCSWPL
Assay: Jurkat-PD-1 Cell Binding High-Content Screening Assay (CBA)
Type: cell-based
Conditions: Jurkat cell line over-expressing human PD-1; PE-labeled PD-L1-Ig 20 nM final; read-out: Jurkat hPD1-PDL1 IC50
How it was run: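 First, compound is added to PD-1-expressing Jurkat cells in serum-containing DMEM and left 2 h at 37° C. Next, PE-conjugated PD-L1-Ig is introduced at 20 nM final concentration for 1 hour. Finally, cells are fixed in 4% paraformaldehyde with Hoechst 33342, washed and imaged.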

SMILES | IC50
Cc1cccc(C[C@@H]2NC(=O)[C@H](CC(=O)O)NC(=O)[C@H](Cc3ccc(OCC(=O)O)cc3)NC(=O)[C@H](CN)NC(=O)CSC[C@@H](C(=O)N[C@@H](CCN)C(=O)NCCCCCCCCCCC(=O)O)NC(=O)[C@H](CCO)NC(=O)[C@H](C(C)C)NC(=O)[C@H](CC3CCCCC3)NC(=O)[C@H](CCN)NC(=O)[C@@H](CC(C)C)NC(=O)[C@H](CCCN)NC(=O)[C@H](Cc3ccc(OCC(=O)O)cc3)NC(=O)[C@H](Cc3ccc(-c4ccccc4)cc3)NC(=O)[C@H](Cc3ccc(OCC(=O)O)cc3)NC2=O)c1 [Compound 2101] ({CH2CO}-[Dap]Y(Carboxymethyl)D[Phe(3-Me)]Y(Carboxymethyl)[Bip]Y(Carboxymethyl)[Orn][dL][Dab][Cha]V[hSer]C[Dab][Aun]-OH; thioether N-14) | 16.2 nM
CC(C)C[C@@H]1NC(=O)[C@H](Cc2c[nH]c3ccccc23)NC(=O)[C@H](CC(=O)O)NC(=O)[C@H](Cc2ccc(OCC(=O)O)cc2)NC(=O)[C@H](C(C)O)NC(=O)CSC[C@@H](C(=O)N[C@@H](CCN)C(=O)NCCCCCCCCCCC(=O)O)NC(=O)[C@H](Cc2cnc[nH]2)NC(=O)[C@H](C(C)O)NC(=O)[C@H](CC2CCCCC2)NC(=O)[C@H](CCN)NC(=O)[C@@H](CC(C)C)NC(=O)[C@H](CCCN)NC(=O)[C@H](C(C)C)NC(=O)[C@H](Cc2ccc(-c3ccccc3)cc2)NC1=O (stereo partly drawn) [Compound 3690] ({CH2CO}-[Thr(3ξ)]Y(Carboxymethyl)DWL[Bip]V[Orn][dL][Dab][Cha][Thr(3ξ)]HC[Dab][Aun]-OH; thioether N-14) | 38.8 nM
Cc1cccc(C[C@@H]2NC(=O)[C@H](CC(=O)O)NC(=O)[C@H](CCCC(=O)O)NC(=O)[C@H]([C@@H](C)O)NC(=O)CSC[C@@H](C(=O)N[C@@H](CCN)C(=O)NCCCCCCCCCCC(=O)O)NC(=O)[C@H](CO)NC(=O)[C@H](C(C)(C)O)NC(=O)[C@H](CC3CCCCC3)NC(=O)[C@H](CCN)NC(=O)[C@@H](CC(C)C)NC(=O)[C@H](CCCN)NC(=O)[C@H](Cc3ccc(OCC(=O)O)cc3)NC(=O)[C@H](Cc3ccc(-c4ccccc4)cc3)NC(=O)[C@H](Cc3ccc(OCC(=O)O)cc3)NC2=O)c1 [Compound 2198] ({CH2CO}-T[Aad]D[Phe(3-Me)]Y(Carboxymethyl)[Bip]Y(Carboxymethyl)[Orn][dL][Dab][Cha][Val(3-OH)]SC[Dab][Aun]-OH; thioether N-14) | 48.1 nM
CC(=O)NCC[C@@H]1NC(=O)[C@H](C(C)C)NC(=O)[C@H](CC2CCCCC2)NC(=O)[C@H](CCN)NC(=O)[C@@H](CC(C)C)NC(=O)[C@H](CCC(=O)O)NC(=O)[C@H](C(C)C)NC(=O)[C@H](Cc2ccc(-c3ccccc3)cc2)NC(=O)[C@H](CC(C)C)NC(=O)[C@H](Cc2c[nH]c3ccccc23)NC(=O)[C@H](CC(=O)O)NC(=O)[C@H](Cc2ccc(OCC(=O)O)cc2)NC(=O)[C@H](Cc2ccc(OCC(=O)O)cc2)NC(=O)CSC[C@@H](C(=O)NCCOCCOCC(=O)NCCCCCCCCCCC(=O)O)NC1=O [Compound 3711] ({CH2CO}-Y(Carboxymethyl)Y(Carboxymethyl)DWL[Bip]VE[dL][Dab][Cha]V[Dab](Ac)C[AEEA][Aun]-OH; thioether N-14) | 91.5 nM
CC(C)C[C@H]1NC(=O)[C@H](CCCN)NC(=O)[C@H](Cc2ccc(O)cc2)NC(=O)[C@H](Cc2ccc(-c3ccccc3)cc2)NC(=O)[C@H](C(C)C)NC(=O)[C@H](Cc2c[nH]c3ccccc23)NC(=O)[C@H](CC(=O)O)NC(=O)[C@H](Cc2ccc(OCC(=O)O)cc2)NC(=O)[C@H](Cc2ccncc2)NC(=O)CSC[C@@H](C(=O)N[C@@H](CCN)C(=O)NCCCCCCCCCCC(=O)O)NC(=O)[C@H](CCCN)NC(=O)[C@H](C(C)C)NC(=O)[C@H](CC2CCCCC2)NC(=O)[C@H](CCN)NC1=O [Compound 2702] ({CH2CO}-[4Pal]Y(Carboxymethyl)DWV[Bip]Y[Orn][dL][Dab][Cha]V[Orn]C[Dab][Aun]-OH; thioether N-14) | 25.7 nM
Cc1cccc(C[C@@H]2NC(=O)[C@H](CC(=O)O)NC(=O)[C@H](Cc3ccc(OCC(=O)O)cc3)NC(=O)[C@H](CCN)NC(=O)CSC[C@@H](C(=O)N[C@@H](CCN)C(=O)NCCOCCOCC(=O)NCCOCCOCC(=O)NCCCCCCCCCCCCC(=O)O)NC(=O)[C@H](CCC(=O)O)NC(=O)[C@H](C(C)(C)O)NC(=O)[C@H](CC3CCCCC3)NC(=O)[C@H](Cc3c[nH]cn3)NC(=O)[C@@H](CC(C)C)NC(=O)[C@H](CCCN)NC(=O)[C@H](Cc3ccc(C(=O)O)cc3)NC(=O)[C@H](Cc3ccc(-c4ccccc4)cc3)NC(=O)[C@H](Cc3ccc(C(=O)O)cc3)NC2=O)c1 [Compound 2888] ({CH2CO}-[Dab]Y(Carboxymethyl)D[Phe(3-Me)][Phe(4-COOH)][Bip][Phe(4-COOH)][Orn][dL]H[Cha][Val(3-OH)]EC[Dab][AEEA][AEEA]-{NH(CH2)12COOH}; thioether N-14) | 38.2 nM
C#CCOc1ccc(C[C@@H]2NC(=O)[C@H](C(C)C)NC(=O)[C@H](CC3CCCCC3)NC(=O)[C@H](CCN)NC(=O)[C@@H](CC(C)C)NC(=O)[C@H](CCCN)NC(=O)[C@H](Cc3ccc(OCC(=O)O)cc3)NC(=O)[C@H](Cc3ccc(-c4ccccc4)cc3)NC(=O)[C@H](Cc3ccc(OCC(=O)O)cc3)NC(=O)[C@H](Cc3cccc(C)c3)NC(=O)[C@H](CC(=O)O)NC(=O)[C@H](Cc3ccncc3)NC(=O)[C@H](Cc3ccc(OCC(=O)O)cc3)NC(=O)CSC[C@@H](C(=O)N[C@@H](CCN)C(=O)NCCCCCCCCCCC(=O)O)NC2=O)cc1 [Compound 1249] ({CH2CO}-Y(Carboxymethyl)[4Pal]D[Phe(3-Me)]Y(Carboxymethyl)[Bip]Y(Carboxymethyl)[Orn][dL][Dab][Cha]VY(Propargyl)C[Dab][Aun]-OH; thioether N-14) | 81.7 nM

Now from value to compound:

IC50 | SMILES
34.6 nM | CC(C)C[C@H]1NC(=O)[C@H](CCCN)NC(=O)[C@H](C(C)C)NC(=O)[C@H](Cc2ccc(-c3ccccc3)cc2)NC(=O)[C@H](C(C)C)NC(=O)[C@H](Cc2c[nH]c3ccccc23)NC(=O)[C@H](CC(=O)O)NC(=O)[C@H](Cc2ccc(OCC(=O)O)cc2)NC(=O)[C@H](Cc2ccc(OCC(=O)O)cc2)NC(=O)CSC[C@@H](C(=O)N[C@@H](CCCCN)C(=O)NCCCCCCCCCCC(=O)O)NC(=O)[C@H](CCCNC(=N)N)NC(=O)[C@H](C(C)C)NC(=O)[C@H](CC2CCCCC2)NC(=O)[C@H](CCN)NC1=O [Compound 2532] ({CH2CO}-Y(Carboxymethyl)Y(Carboxymethyl)DWV[Bip]V[Orn][dL][Dab][Cha]VRCK[Aun]-OH; thioether N-14)
9.2 nM | Cc1cccc(C[C@@H]2NC(=O)[C@H](CC(=O)O)NC(=O)[C@H](Cc3ccc(OCC(=O)O)cc3)NC(=O)[C@H](CN)NC(=O)CSC[C@@H](C(=O)N[C@@H](C)C(=O)N[C@@H](CC(=O)O)C(=O)NCCCCCCCCCCC(=O)O)NC(=O)[C@H]([C@@H](C)O)NC(=O)[C@H](C(C)C)NC(=O)[C@H](CC3CCCCC3)NC(=O)[C@H](CCN)NC(=O)[C@@H](CC(C)C)NC(=O)[C@H](CCCN)NC(=O)[C@H](CCCNC(N)=O)NC(=O)[C@H](Cc3ccc(-c4ccccc4)cc3)NC(=O)[C@H](C(C)C)NC2=O)c1 [Compound 1006] ({CH2CO}-[Dap]Y(Carboxymethyl)D[Phe(3-Me)]V[Bip][Cit][Orn][dL][Dab][Cha]VTCAD[Aun]-OH; thioether N-14)
12.1 nM | CC(C)C[C@H]1NC(=O)[C@H](CCCN)NC(=O)[C@H](C(C)C)NC(=O)[C@H](Cc2ccc(-c3ccccc3)cc2)NC(=O)[C@H](C(C)C)NC(=O)[C@H](Cc2c[nH]c3ccccc23)NC(=O)[C@H](CC(=O)O)NC(=O)[C@H](Cc2ccc(OCC(=O)O)cc2)NC(=O)[C@H](CN)NC(=O)CSC[C@@H](C(=O)N[C@@H](CCN)C(=O)NCCCCCCCCCCC(=O)O)NC(=O)[C@H](CCCCN)NC(=O)[C@H](C(C)C)NC(=O)[C@H](CC2CCCCC2)NC(=O)[C@H](CCN)NC1=O [Compound 2557] ({CH2CO}-[Dap]Y(Carboxymethyl)DWV[Bip]V[Orn][dL][Dab][Cha]VKC[Dab][Aun]-OH; thioether N-14)
11.3 nM | CC(C)C[C@H]1NC(=O)[C@H](CCCN)NC(=O)[C@H](C(C)C)NC(=O)[C@H](Cc2ccc(-c3ccccc3)cc2)NC(=O)[C@H](C(C)C)NC(=O)[C@H](Cc2c[nH]c3ccccc23)NC(=O)[C@H](CC(=O)O)NC(=O)[C@H](Cc2ccc(OCC(=O)O)cc2)NC(=O)[C@H](CN)NC(=O)CSC[C@@H](C(=O)N[C@@H](CCN)C(=O)NCCCCCCCCCCC(=O)O)NC(=O)[C@H](CCCN)NC(=O)[C@H](C(C)O)NC(=O)[C@H](CC2CCCCC2)NC(=O)[C@H](CCN)NC1=O (stereo partly drawn) [Compound 3677] ({CH2CO}-[Dap]Y(Carboxymethyl)DWV[Bip]V[Orn][dL][Dab][Cha][Thr(3ξ)][Orn]C[Dab][Aun]-OH; thioether N-14)
5.2 nM | Cc1cccc(C[C@@H]2NC(=O)[C@H](CC(=O)O)NC(=O)[C@H](Cc3ccc(OCC(=O)O)cc3)NC(=O)[C@H](CCCNC(=N)N)NC(=O)CSC[C@@H](C(=O)N[C@@H](CCN)C(=O)NCCCCCCCCCCC(=O)O)NC(=O)[C@H]([C@@H](C)O)NC(=O)[C@H](C(C)C)NC(=O)[C@H](CC3CCCCC3)NC(=O)[C@H](CCN)NC(=O)[C@@H](CC(C)C)NC(=O)[C@H](CCCN)NC(=O)[C@H](CCCNC(N)=O)NC(=O)[C@H](Cc3ccc(-c4ccccc4)cc3)NC(=O)[C@H](Cc3ccc(O)cc3)NC2=O)c1 [Compound 2833] ({CH2CO}-RY(Carboxymethyl)D[Phe(3-Me)]Y[Bip][Cit][Orn][dL][Dab][Cha]VTC[Dab][Aun]-OH; thioether N-14)
14.6 nM | Cc1cccc(C[C@@H]2NC(=O)[C@H](CC(=O)O)NC(=O)[C@H](Cc3ccc(OCC(=O)O)cc3)NC(=O)[C@H](CC(N)=O)NC(=O)CSC[C@@H](C(=O)N[C@@H](CCN)C(=O)NCCCCCCCCCCC(=O)O)NC(=O)[C@H](C(C)O)NC(=O)[C@H](C(C)C)NC(=O)[C@H](CC3CCCCC3)NC(=O)[C@H](CCN)NC(=O)[C@@H](CC(C)C)NC(=O)[C@H](CCCN)NC(=O)[C@H](CCCNC(N)=O)NC(=O)[C@H](Cc3ccc(-c4ccccc4)cc3)NC(=O)[C@H](C(C)C)NC2=O)c1 (stereo partly drawn) [Compound 3455] ({CH2CO}-NY(Carboxymethyl)D[Phe(3-Me)]V[Bip][Cit][Orn][dL][Dab][Cha]V[Thr(3ξ)]C[Dab][Aun]-OH; thioether N-14)
